From PMC10174618, “Monoterpenoid aryl hydrocarbon receptor allosteric antagonists protect against ultraviolet skin damage in female mice” (Nature Communications, 2023)

Legend:
Assay in all cases: biochemical
Parameters in all cases: KINOMEscan scanMAX active site-directed competition binding assay, percent of control, 468 kinases
Conditions in all cases: competition binding, percent of control
FGFR3 = FGFR3 (Homo sapiens, UniProt P22607)
Method in brief: (§1)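 KINOMEscan active site-directed competition binding assay against 468 human kinases with 100 μM S-carvone. Binding expressed as % of control, with 35% of control as the inhibition threshold.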

YSK4 = target: T1, YSK4 (Homo sapiens, UniProt Q56UN5)
T1 construct: gene MAP3K19
Method in brief: as §1

SGK2 = SGK2 (Homo sapiens, UniProt Q9HBY8)
Method in brief: as §1

ERBB2 = ERBB2 (Homo sapiens, UniProt P04626)
Method in brief: as §1

ACVR2A = ACVR2A (Homo sapiens, UniProt P27037)
Method in brief: as §1

PIK3CB = PIK3CB (Homo sapiens, UniProt P42338)
Method in brief: as §1

BMPR1B = BMPR1B (Homo sapiens, UniProt O00238)
Method in brief: as §1

EIF2AK1 = EIF2AK1 (Homo sapiens, UniProt Q9BQI3)
Method in brief: as §1

FLT3 = FLT3 (Homo sapiens, UniProt P36888)
Method in brief: as §1

PLK4 = PLK4 (Homo sapiens, UniProt O00444)
Method in brief: as §1

PRKD3 = PRKD3 (Homo sapiens, UniProt O94806)
Method in brief: as §1

ADCK4 = target: T2, ADCK4 (Homo sapiens, UniProt Q96D53)
T2 construct: gene COQ8B
Method in brief: as §1

CSNK2A2 = CSNK2A2 (Homo sapiens, UniProt P19784)
Method in brief: as §1

LRRK2(G2019S) = LRRK2(G2019S) (Homo sapiens, UniProt Q5S007, G2019S)
Method in brief: as §1

CSNK1G1 = CSNK1G1 (Homo sapiens, UniProt Q9HCP0)
Method in brief: as §1

FGFR2 = FGFR2 (Homo sapiens, UniProt P21802)
Method in brief: as §1

[1] = target: T3, ABL1(T315I)-phosphorylated (Homo sapiens, UniProt P00519, T315I)
T3 construct: phosphorylated
Method in brief: as §1

SRMS = SRMS (Homo sapiens, UniProt Q9H3Y6)
Method in brief: as §1

MAK = MAK (Homo sapiens, UniProt P20794)
Method in brief: as §1

LIMK2 = LIMK2 (Homo sapiens, UniProt P53671)
Method in brief: as §1

CAMK1B = target: T4, CAMK1B (Homo sapiens, UniProt Q6P2M8)
T4 construct: gene PNCK
Method in brief: as §1

RIOK1 = RIOK1 (Homo sapiens, UniProt Q9BRS2)
Method in brief: as §1

Chain of SRMS (Q9H3Y6 whole entry): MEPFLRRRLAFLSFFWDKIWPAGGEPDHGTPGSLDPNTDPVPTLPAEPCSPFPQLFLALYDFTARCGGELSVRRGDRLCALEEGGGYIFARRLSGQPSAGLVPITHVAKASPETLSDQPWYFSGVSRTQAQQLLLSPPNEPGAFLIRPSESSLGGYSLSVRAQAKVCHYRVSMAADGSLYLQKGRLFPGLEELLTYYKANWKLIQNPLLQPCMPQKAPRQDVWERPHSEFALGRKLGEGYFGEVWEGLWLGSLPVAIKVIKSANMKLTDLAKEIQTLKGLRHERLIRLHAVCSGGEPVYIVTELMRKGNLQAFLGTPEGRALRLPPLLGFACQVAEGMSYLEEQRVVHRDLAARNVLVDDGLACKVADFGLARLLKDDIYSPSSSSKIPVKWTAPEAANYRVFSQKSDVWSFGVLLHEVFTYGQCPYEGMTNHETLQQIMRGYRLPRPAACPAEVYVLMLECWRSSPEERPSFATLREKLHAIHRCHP
Chain of MAK (P20794 whole entry): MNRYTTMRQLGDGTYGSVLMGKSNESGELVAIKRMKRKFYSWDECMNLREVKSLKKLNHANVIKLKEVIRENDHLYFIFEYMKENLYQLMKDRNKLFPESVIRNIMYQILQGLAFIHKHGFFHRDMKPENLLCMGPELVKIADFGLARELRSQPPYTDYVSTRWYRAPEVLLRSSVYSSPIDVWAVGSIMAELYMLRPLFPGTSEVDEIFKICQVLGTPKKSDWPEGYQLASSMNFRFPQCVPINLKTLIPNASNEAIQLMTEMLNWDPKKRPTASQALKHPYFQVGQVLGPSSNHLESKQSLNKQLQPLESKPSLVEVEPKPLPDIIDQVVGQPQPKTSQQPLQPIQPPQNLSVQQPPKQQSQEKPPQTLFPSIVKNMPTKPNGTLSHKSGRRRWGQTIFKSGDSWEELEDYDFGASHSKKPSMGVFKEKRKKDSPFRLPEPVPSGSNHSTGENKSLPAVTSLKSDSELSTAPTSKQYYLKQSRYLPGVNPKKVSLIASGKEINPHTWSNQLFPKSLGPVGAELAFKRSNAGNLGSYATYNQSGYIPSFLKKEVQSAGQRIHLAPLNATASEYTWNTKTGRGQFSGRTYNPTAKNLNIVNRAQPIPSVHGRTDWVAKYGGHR
Chain of LIMK2 (P53671 whole entry): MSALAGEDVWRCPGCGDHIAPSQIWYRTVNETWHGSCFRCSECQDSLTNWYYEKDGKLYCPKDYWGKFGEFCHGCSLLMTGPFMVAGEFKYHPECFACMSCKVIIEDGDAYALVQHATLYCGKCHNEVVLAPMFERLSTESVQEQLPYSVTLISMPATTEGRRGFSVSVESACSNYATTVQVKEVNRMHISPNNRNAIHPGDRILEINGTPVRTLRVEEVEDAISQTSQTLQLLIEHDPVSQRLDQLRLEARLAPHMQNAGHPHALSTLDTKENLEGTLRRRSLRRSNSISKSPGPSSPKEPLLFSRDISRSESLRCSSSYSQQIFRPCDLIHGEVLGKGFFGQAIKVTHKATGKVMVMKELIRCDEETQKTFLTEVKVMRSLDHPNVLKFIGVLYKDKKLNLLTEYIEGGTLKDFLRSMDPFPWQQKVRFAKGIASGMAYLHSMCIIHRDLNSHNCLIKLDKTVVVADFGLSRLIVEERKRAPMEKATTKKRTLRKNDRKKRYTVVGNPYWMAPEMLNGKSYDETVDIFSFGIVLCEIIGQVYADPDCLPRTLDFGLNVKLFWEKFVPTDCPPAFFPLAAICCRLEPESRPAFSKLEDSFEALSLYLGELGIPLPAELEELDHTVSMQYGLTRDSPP
Chain of CSNK1G1 (Q9HCP0 whole entry): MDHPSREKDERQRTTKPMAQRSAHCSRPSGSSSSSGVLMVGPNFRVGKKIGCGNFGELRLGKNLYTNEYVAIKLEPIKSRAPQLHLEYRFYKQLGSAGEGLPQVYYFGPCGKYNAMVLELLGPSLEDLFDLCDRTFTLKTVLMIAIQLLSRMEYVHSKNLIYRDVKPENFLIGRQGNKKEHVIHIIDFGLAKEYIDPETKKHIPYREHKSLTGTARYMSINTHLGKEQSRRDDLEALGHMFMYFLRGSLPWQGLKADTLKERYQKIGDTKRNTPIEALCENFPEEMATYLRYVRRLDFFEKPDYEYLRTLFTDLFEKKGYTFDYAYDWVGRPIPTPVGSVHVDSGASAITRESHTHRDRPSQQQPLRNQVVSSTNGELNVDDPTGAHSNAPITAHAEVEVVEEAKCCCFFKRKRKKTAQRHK
Chain of FLT3 (P36888 whole entry): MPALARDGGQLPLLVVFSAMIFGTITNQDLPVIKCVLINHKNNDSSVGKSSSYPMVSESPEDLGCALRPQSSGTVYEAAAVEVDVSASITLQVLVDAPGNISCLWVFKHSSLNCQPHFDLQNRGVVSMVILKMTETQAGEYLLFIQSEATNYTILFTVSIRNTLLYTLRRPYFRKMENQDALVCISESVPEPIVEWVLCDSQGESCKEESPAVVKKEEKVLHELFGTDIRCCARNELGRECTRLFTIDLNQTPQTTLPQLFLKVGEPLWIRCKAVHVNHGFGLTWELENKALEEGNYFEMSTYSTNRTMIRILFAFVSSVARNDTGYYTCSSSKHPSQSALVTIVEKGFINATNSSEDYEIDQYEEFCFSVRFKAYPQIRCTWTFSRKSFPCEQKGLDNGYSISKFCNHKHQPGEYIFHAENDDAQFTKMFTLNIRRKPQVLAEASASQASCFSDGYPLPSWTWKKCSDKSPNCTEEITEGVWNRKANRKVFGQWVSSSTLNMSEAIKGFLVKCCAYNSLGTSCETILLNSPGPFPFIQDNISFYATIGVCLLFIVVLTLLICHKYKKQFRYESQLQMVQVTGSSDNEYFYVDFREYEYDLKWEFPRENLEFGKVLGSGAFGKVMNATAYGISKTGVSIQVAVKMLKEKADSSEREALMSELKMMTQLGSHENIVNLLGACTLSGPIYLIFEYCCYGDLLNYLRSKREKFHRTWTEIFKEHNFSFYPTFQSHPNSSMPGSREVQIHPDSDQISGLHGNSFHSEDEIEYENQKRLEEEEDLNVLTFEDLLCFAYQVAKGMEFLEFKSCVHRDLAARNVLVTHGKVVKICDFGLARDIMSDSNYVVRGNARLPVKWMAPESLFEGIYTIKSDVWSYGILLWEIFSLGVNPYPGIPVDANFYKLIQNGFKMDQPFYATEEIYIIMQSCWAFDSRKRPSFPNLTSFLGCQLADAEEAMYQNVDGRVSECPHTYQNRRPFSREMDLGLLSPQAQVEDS
Chain of BMPR1B (O00238 whole entry): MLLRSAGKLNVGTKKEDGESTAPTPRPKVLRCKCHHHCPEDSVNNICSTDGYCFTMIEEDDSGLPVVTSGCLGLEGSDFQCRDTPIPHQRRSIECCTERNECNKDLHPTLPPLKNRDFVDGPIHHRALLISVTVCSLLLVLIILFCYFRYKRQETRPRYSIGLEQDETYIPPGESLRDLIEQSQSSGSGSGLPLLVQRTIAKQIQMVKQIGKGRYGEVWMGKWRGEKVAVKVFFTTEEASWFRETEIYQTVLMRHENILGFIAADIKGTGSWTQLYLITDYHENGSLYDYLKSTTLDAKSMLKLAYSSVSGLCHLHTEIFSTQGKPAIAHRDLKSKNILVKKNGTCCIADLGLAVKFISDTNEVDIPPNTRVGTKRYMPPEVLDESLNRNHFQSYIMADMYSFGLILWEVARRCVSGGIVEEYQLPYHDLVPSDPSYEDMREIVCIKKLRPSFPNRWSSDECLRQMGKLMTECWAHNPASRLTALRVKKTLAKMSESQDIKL
Chain of PRKD3 (O94806 whole entry): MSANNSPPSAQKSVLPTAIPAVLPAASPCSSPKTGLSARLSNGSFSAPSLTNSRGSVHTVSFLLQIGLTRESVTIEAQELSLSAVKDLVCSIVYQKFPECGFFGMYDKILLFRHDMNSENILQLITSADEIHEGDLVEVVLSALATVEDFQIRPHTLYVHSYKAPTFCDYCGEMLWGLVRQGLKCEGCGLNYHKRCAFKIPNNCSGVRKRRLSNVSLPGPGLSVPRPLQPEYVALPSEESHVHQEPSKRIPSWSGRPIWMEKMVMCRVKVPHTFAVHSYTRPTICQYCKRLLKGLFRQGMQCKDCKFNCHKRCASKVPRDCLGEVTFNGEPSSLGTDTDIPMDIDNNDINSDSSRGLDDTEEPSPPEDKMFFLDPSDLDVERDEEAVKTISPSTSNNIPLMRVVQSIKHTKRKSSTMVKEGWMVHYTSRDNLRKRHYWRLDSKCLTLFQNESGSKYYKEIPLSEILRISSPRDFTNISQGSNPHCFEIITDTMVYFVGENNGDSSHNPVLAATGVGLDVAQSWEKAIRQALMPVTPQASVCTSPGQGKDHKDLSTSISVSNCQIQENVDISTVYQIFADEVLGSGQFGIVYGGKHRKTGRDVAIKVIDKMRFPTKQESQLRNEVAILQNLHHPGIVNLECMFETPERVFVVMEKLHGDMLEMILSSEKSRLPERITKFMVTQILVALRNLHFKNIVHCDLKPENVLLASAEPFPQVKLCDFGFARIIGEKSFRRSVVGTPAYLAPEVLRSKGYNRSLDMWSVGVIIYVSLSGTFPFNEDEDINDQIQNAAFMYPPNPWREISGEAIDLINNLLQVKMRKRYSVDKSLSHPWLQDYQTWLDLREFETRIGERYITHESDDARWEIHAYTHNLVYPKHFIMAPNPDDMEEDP
T4 sequence (Q6P2M8 whole entry): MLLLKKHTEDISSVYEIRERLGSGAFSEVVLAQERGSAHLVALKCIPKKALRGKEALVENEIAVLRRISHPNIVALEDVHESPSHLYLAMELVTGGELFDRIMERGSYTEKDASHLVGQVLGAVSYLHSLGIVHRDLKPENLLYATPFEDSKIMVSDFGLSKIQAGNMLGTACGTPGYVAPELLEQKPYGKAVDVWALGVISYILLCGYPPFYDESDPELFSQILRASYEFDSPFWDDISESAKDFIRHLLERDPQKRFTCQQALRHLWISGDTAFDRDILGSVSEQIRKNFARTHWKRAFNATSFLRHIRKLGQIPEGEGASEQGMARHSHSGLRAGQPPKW

remaining binding at 100 µM (FGFR3): 75% | remaining binding at 100 µM (YSK4): 61% | remaining binding at 100 µM (SGK2): 68% | remaining binding at 100 µM (ERBB2): 83% | remaining binding at 100 µM (ACVR2A): 90% | remaining binding at 100 µM (PIK3CB): 88% | remaining binding at 100 µM (BMPR1B): 74% | remaining binding at 100 µM (EIF2AK1): 75% | remaining binding at 100 µM (FLT3): 71% | remaining binding at 100 µM (PLK4): 76% | remaining binding at 100 µM (PRKD3): 92% | remaining binding at 100 µM (ADCK4): 92% | remaining binding at 100 µM (CSNK2A2): 87% | remaining binding at 100 µM (LRRK2(G2019S)): 81% | remaining binding at 100 µM (CSNK1G1): 100% | remaining binding at 100 µM (FGFR2): 80% | remaining binding at 100 µM [1]: 88% | remaining binding at 100 µM (SRMS): 76% | remaining binding at 100 µM (MAK): 73% | remaining binding at 100 µM (LIMK2): 90% | remaining binding at 100 µM (CAMK1B): 61% | remaining binding at 100 µM (RIOK1): 100%
Structure (SMILES): C=C(C)[C@H]1CC=C(C)C(=O)C1 [S-carvone]
